Data: ChEMBL document CHEMBL3885861, “Open TG-GATES”

Species: Rattus norvegicus
Assay: Open TG-GATES - Regimen: Single
Assay type: toxicity, organism-based, Sprague-Dawley
Parameters: regimen Single, gender Male, age 6 weeks
Settings: in vivo, po, 150 mg/kg, route gavage, dose level Middle; for APTT / Bas / Eos / Fbg / Hb / Ht / Lym / MCH / MCHC / MCV / Mono / Neu / PT / Plat / RBC / Ret / WBC: tissue Blood; for KIDNEY_L / KIDNEY_R / KIDNEY_TOTAL: tissue Kidney; for LIVER: tissue Liver; for A/G / ALP / ALT / AST / BUN / CRE / Ca / Cl / DBIL / GLC / IP / K / LDH / Na / PL / RALB / TBIL / TC / TG / TP / gamma-GTP: tissue Plasma

**Q.** Which results are given for `CN1C(=O)OC(C)(C)C1=O` [TRIMETHADIONE]?
**A.** TERMINAL_BW (3 h): 208.1 g; APTT (3 h): 15.9 s; Bas (3 h): 0%; Eos (3 h): 0.6%; Fbg (3 h): 262.2 mg/dL; Hb (3 h): 13.4 g/dL; Ht (3 h): 40.4%; Lym (3 h): 78.8%; MCH (3 h): 21.4 pg; MCHC (3 h): 33.2%; MCV (3 h): 64.6 fL; Mono (3 h): 2.4%; Neu (3 h): 17.2%; PT (3 h): 13.5 s; Plat (3 h): 114.9 x10_4/uL; RBC (3 h): 625.4 x10_4/ul; Ret (3 h): 7.7%; WBC (3 h): 81.5 x10_2/uL; KIDNEY_L (3 h): 0.9 g; KIDNEY_R (3 h): 0.9 g; KIDNEY_TOTAL (3 h): 1.8 g; LIVER (3 h): 9.1 g; A/G (3 h): 0.9; ALP (3 h): 1472.2 IU/L; ALT (3 h): 38.4 IU/L; AST (3 h): 70.6 IU/L; BUN (3 h): 10 mg/dL; CRE (3 h): 0.2 mg/dL; Ca (3 h): 10.6 mg/dL; Cl (3 h): 108 meq/L; DBIL (3 h): 0.004 mg/dL; GLC (3 h): 177.8 mg/dL; IP (3 h): 8.3 mg/dL; K (3 h): 4.2 meq/L; LDH (3 h): 106 IU/L; Na (3 h): 141 meq/L; PL (3 h): 144.4 mg/dL; RALB (3 h): 2.5 g/dL; TBIL (3 h): 0.056 mg/dL; TC (3 h): 75 mg/dL; TG (3 h): 82 mg/dL; TP (3 h): 5.3 g/dL; gamma-GTP (3 h): 1 IU/L; TERMINAL_BW (6 h): 209 g; APTT (6 h): 16.3 s; Bas (6 h): 0.2%; Eos (6 h): 1%; Fbg (6 h): 267 mg/dL; Hb (6 h): 13.4 g/dL; Ht (6 h): 40.1%; Lym (6 h): 80.8%; MCH (6 h): 21.7 pg; MCHC (6 h): 33.3%; MCV (6 h): 65.3 fL; Mono (6 h): 2.4%; Neu (6 h): 15.2%; PT (6 h): 13.8 s; Plat (6 h): 126.8 x10_4/uL; RBC (6 h): 614.2 x10_4/ul; Ret (6 h): 8.4%; WBC (6 h): 94.5 x10_2/uL; KIDNEY_L (6 h): 0.9 g; KIDNEY_R (6 h): 0.9 g; KIDNEY_TOTAL (6 h): 1.8 g; LIVER (6 h): 8.6 g; A/G (6 h): 0.9; ALP (6 h): 1642.2 IU/L; ALT (6 h): 36.2 IU/L; AST (6 h): 72.2 IU/L; BUN (6 h): 8.6 mg/dL; CRE (6 h): 0.2 mg/dL; Ca (6 h): 10.6 mg/dL; Cl (6 h): 107.4 meq/L; DBIL (6 h): 0.004 mg/dL; GLC (6 h): 175.8 mg/dL; IP (6 h): 8.9 mg/dL; K (6 h): 4.3 meq/L; LDH (6 h): 79.4 IU/L; Na (6 h): 140.6 meq/L; PL (6 h): 139.4 mg/dL; RALB (6 h): 2.4 g/dL; TBIL (6 h): 0.062 mg/dL; TC (6 h): 76 mg/dL; TG (6 h): 54.6 mg/dL; TP (6 h): 5.2 g/dL; gamma-GTP (6 h): 1 IU/L; TERMINAL_BW (9 h): 204.4 g; APTT (9 h): 17.8 s; Bas (9 h): 0%; Eos (9 h): 1%; Fbg (9 h): 276 mg/dL; Hb (9 h): 13.2 g/dL; Ht (9 h): 39.8%; Lym (9 h): 76%; MCH (9 h): 21.7 pg; MCHC (9 h): 33.2%; MCV (9 h): 65.5 fL; Mono (9 h): 2.2%; Neu (9 h): 20.8%; PT (9 h): 14 s; Plat (9 h): 119.5 x10_4/uL; RBC (9 h): 608.8 x10_4/ul; Ret (9 h): 8.3%; WBC (9 h): 84 x10_2/uL; KIDNEY_L (9 h): 0.9 g; KIDNEY_R (9 h): 0.9 g; KIDNEY_TOTAL (9 h): 1.8 g; LIVER (9 h): 7.8 g; A/G (9 h): 0.9; ALP (9 h): 1417.8 IU/L; ALT (9 h): 33.8 IU/L; AST (9 h): 72.2 IU/L; BUN (9 h): 7.2 mg/dL; CRE (9 h): 0.2 mg/dL; Ca (9 h): 10.3 mg/dL; Cl (9 h): 109.8 meq/L; DBIL (9 h): 0 mg/dL; GLC (9 h): 164.4 mg/dL; IP (9 h): 9.9 mg/dL; K (9 h): 3.9 meq/L; LDH (9 h): 118.2 IU/L; Na (9 h): 142.4 meq/L; PL (9 h): 137.4 mg/dL; RALB (9 h): 2.5 g/dL; TBIL (9 h): 0.066 mg/dL; TC (9 h): 74.4 mg/dL; TG (9 h): 32.4 mg/dL; TP (9 h): 5.3 g/dL; gamma-GTP (9 h): 1 IU/L; TERMINAL_BW (24 h): 217.7 g; APTT (24 h): 20.8 s; Bas (24 h): 0%; Eos (24 h): 1%; Fbg (24 h): 279.8 mg/dL; Hb (24 h): 13.8 g/dL; Ht (24 h): 41.1%; Lym (24 h): 78.2%; MCH (24 h): 21.7 pg; MCHC (24 h): 33.5%; MCV (24 h): 64.9 fL; Mono (24 h): 2.6%; Neu (24 h): 18%; PT (24 h): 13.4 s; Plat (24 h): 112.6 x10_4/uL; RBC (24 h): 634.2 x10_4/ul; Ret (24 h): 6.8%; WBC (24 h): 104 x10_2/uL; KIDNEY_L (24 h): 0.9 g; KIDNEY_R (24 h): 0.9 g; KIDNEY_TOTAL (24 h): 1.9 g; LIVER (24 h): 9.6 g; A/G (24 h): 0.9; ALP (24 h): 2022.8 IU/L; ALT (24 h): 50 IU/L; AST (24 h): 81 IU/L; BUN (24 h): 15.4 mg/dL; CRE (24 h): 0.2 mg/dL; Ca (24 h): 10.7 mg/dL; Cl (24 h): 104.6 meq/L; DBIL (24 h): 0.006 mg/dL; GLC (24 h): 171.6 mg/dL; IP (24 h): 7.9 mg/dL; K (24 h): 4.3 meq/L; LDH (24 h): 116.2 IU/L; Na (24 h): 143 meq/L; PL (24 h): 148.2 mg/dL; RALB (24 h): 2.6 g/dL; TBIL (24 h): 0.056 mg/dL; TC (24 h): 76.4 mg/dL; TG (24 h): 83 mg/dL; TP (24 h): 5.6 g/dL; gamma-GTP (24 h): 1 IU/L
